Like-named read-outs stand apart in the source and are kept apart here.
Columns and labels:
[1] = Two step infusion study in healthy male subjects: pharmacokinetics (Tedisamil plasma concentration); assay type: in vivo; settings: human; for Tmax: male, iv, 0.4 mg/kg, after start of infusion, 0.4 mg/kg iv two step infusion
Experimental: A double-blind, placebo-controlled, randomized, single iv dose, two periods cross-over study to assess the safety, tolerability, pharmacodynamics and pharmacokinetics during and following a two step infusion of Tedisamil in healthy male subjects was performed with the following drug and dosages: Tedisamil dihydrochloride/0.4 mg/kg body weight infused over 30 minutes.
Subjects were included in the study only if they were healthy males, their age was in the range of 18-40 years (both inclusive), their body mass index (BMI) was between 18 kg/m^2 and 28 kg/m^2. Test product, dose and mode of administration: Tedisamil dihydrochloride; Strength: 2 mg/ml; Dose: 0.4 mg/kg body weight infused over 30 minutes, with half of the dose infused over 10 minutes and half of the dose infused over the remaining 20 minutes. Route: intravenous.
Blood samples for determination of Tedisamil plasma concentration were taken at several time points during and following intravenous drug administration in both study periods. The following pharmacokinetic parameters were determined: AUC(0-inf), AUC(0-t), Cmax, Tmax, t1/2, λz, Vss, CL, MRT and the number of data points considered for the determination of terminal half life.
Geometric means and corresponding 90% confidence intervals were calculated for the plasma concentration of tedisamil at each time-point, for AUC, AUC(0-t), CL, and Cmax.
Arithmetic means and corresponding 90% confidence intervals were calculated for the other variables (Vss, λz, t1/2, MRT). Tmax was described using minimum, median, maximum, and frequency counts. Individual and mean plasma-concentration versus time curves were plotted using both linear and semi-logarithmic scale.

[2] = system: patients with atrial fibrillation or flutter; assay: Safety and tolerability of intravenous tedisamil in patients with atrial fibrillation or flutter; assay type: in vivo, human
Experimental: The safety objective was: To determine the safety and tolerability of tedisamil versus placebo.
Safety was monitored regarding: Physical examination, ECG, 24-hour Holter monitoring, vital signs, laboratory evaluations and adverse events.
(§1) The intent-to-treat patient sample was analyzed for efficacy. All tests were two-sided and a p-value <0.05 was considered significant. Differences in percentages of conversion were compared among the treatment groups using the Pearson chi-square statistic. Safety analysis was conducted on the safety patient sample. Numbers and percentages of patients with adverse events were calculated for each treatment group, using MedDRA preferred terms and body systems. Descriptive statistics were summarized by treatment group for changes from baseline in QT, heart rate and blood pressure.
Physical examination, ECG, 24-hour Holter monitoring, vital signs, laboratory evaluations and adverse events.

[3] = system: patients with atrial flutter; assay: Placebo-controlled ascending dose study of intravenous tedisamil: conversion to normal sinus rhythm, patients with atrial flutter; assay type: in vivo, human; settings: for Conversion to NSR at any time within 2.5 hrs after the start of infusion (patients converted out of total) / Conversion to NSR at any time within 2.5 hrs after the start of infusion (percentage of patients) / Conversion to NSR at any time within 2.5 hrs and remaining in NSR until 2.5 hrs after the start of infusion (patients out of total) / Conversion to NSR at any time within 2.5 hrs and remaining in NSR until 2.5 hrs after the start of infusion (percentage of patients) / Conversion to NSR at any time within 2.5 hrs and remaining in NSR until 24 hrs after the start of infusion (patients out of total) / Conversion to NSR at any time within 2.5 hrs and remaining in NSR until 24 hrs after the start of infusion (percentage of patients) / Conversion to NSR at any time within 24 hrs after the start of infusion (patients out of total) / Conversion to NSR at any time within 24 hrs after the start of infusion (percentage of patients) / Conversion to NSR at any time within 24 hrs and remaining in NSR until 24 hrs after the start of infusion (patients out of total) / Conversion to NSR at any time within 24 hrs and remaining in NSR until 24 hrs after the start of infusion (percentage of patients): patients with atrial flutter; for Conversion to NSR at any time within 2.5 hrs after start of infusion (converted/total) / Conversion to NSR at any time within 2.5 hrs after start of infusion (%): Atrial Flutter, ITT patient sample, patients with DC cardioversion excluded
Experimental: A Multi-Center, Double-Blind, Randomized, Placebo-Controlled, Sequential Ascending Dose Groups Study to evaluate the Efficacy and Safety of Intravenous Tedisamil in the Rapid Conversion to Normal Sinus Rhythm in Patients with Atrial Fibrillation or Flutter was performed.
• Tedisamil (0.4 mg/kg body weight) • Tedisamil (0.6 mg/kg body weight) • Placebo • Dosages were given as a 30 minute intravenous infusion regimen. 1. Study Design
This multicenter trial was a double-blind, randomized, placebo-controlled, ascending dose groups study comparing the efficacy and safety of intravenous tedisamil treatment versus placebo in symptomatic patients with atrial fibrillation or flutter (>3 hours and <48 hours). The primary efficacy endpoint of this study was the termination of atrial fibrillation or flutter (for at least 60 seconds) within 2.5 hours after start of the infusion.
Following screening and baseline assessments, eligible patients were randomized to tedisamil or placebo with a sequential dose escalation approach. In the first stage, patients received 0.4 mg tedisamil/kg body weight or placebo over a 30 minutes infusion period, with half the dose infused during the first 10 minutes and half the dose infused over the remaining 20 minutes. After interim safety evaluation, in the second stage, patients received 0.6 mg tedisamil/kg body weight or placebo, with the same infusion regimen.
Patients were discharged from the telemetry unit 24 hours post infusion and safety follow up was to be obtained after 28 days. Blinded reviews of 12-lead ECGs (including 60 seconds rhythm strip) and 24 hour Holters to adjudicate the clinical endpoint (conversion to normal sinus rhythm) were performed centrally according to standard guidelines.
Tedisamil dihydrochloride, 0.4 mg/kg body weight, 0.6.mg/kg body weight was administered intravenously. The total infusion time was 30 minutes, with half the dose infused within 10 minutes, and half the dose infused within the remaining 20 minutes.
The percentage of patients converted to normal sinus rhythm (for at least 60 seconds) at any time within 2.5 hours after the initiation of the infusion of study drug.
6.1.2 Secondary Efficacy • The percentage of patients converted to normal sinus rhythm (for at least 60 seconds) at any time within 2.5 hrs and remaining in sinus rhythm until 2.5 hours after initiation of the intravenous infusion of tedisamil versus placebo. • The percentage of patients converted to normal sinus rhythm (for at least 60 seconds) at any time within 24 hours after initiation of the intravenous infusion of tedisamil versus placebo. • The percentage of patients converted to normal sinus rhythm (for at least 60 seconds) at any time within 24 hrs and remaining in sinus rhythm until 24 hours after initiation of the intravenous infusion of tedisamil versus placebo. • The percentage of patients converted to normal sinus rhythm (for at least 60 seconds) at any time within 2.5 hrs and remaining in sinus rhythm until 24 hours after initiation of the intravenous infusion of tedisamil versus placebo. • The time to conversion after the start of the infusion of tedisamil versus placebo. • The dose- and concentration-response relationships of tedisamil versus placebo.
as §1, with “pressure. […]” for “pressure.”

[4] = two-step infusion regimen, 0.4 and 0.6 mg/kg
[5] = 0.4 mg/kg iv two-step 30 minute infusion
[6] = 0.6 mg/kg iv two-step 30 minute infusion

## C1CCC2(C1)C1CN(CC3CC3)CC2CN(CC2CC2)C1 [Tedisamil, N,N′-dicyclopropylmethyl-9,9-tetramethylene-3,7-diazabicyclo[3,3,1]nonane]
[1]; 0.4 mg/kg tedisamil dihydrochloride iv, two step infusion over 30 minutes, read-out: AUC(0-inf), Geom. Mean
  AUC(0-inf): 1720 ng·h/mL
[1]; 0.4 mg/kg tedisamil dihydrochloride iv, two step infusion over 30 minutes, read-out: AUC(0-t), Geom. Mean
  AUC(0-t): 1670 ng·h/mL
[1]; 0.4 mg/kg tedisamil dihydrochloride iv, two step infusion over 30 minutes, read-out: CL, Geom. Mean
  clearance: 315 mL/min
[1]; 0.4 mg/kg tedisamil dihydrochloride iv, two step infusion over 30 minutes, read-out: Cmax, Geom. Mean
  Cmax: 905 ng/mL
[1]; 0.4 mg/kg tedisamil dihydrochloride iv, two step infusion over 30 minutes, read-out: t½, Arithmetic mean (converted)
  half-life: 330 min
[1]; read-out: Time of peak plasma concentration (Tmax), median (converted)
  Tmax: 12.5 min
[1]; read-out: Time of peak plasma concentration (Tmax), range
  Tmax: 5 to 75 min
[2]; 30 min regimen, by gender
  TdP (Torsade de Point): Almost all observed TdP (Torsade de Point) in 30 min regimen were in female patients
[2]; first study (Phase II)
  Gender difference in safety issues: male patients show less safety issues than female patients
[2]; [4]
  DC cardioversion required for treatment of VTs: no patient required DC cardioversion for treatment of VTs
  Sustained polymorphic VT: no sustained polymorphic VT were observed
  Tolerability in patients: well tolerated
[3]; [5]
  Conversion to NSR at any time within 2.5 hrs after the start of infusion (patients converted out of total): 1 out of 9
  Conversion to NSR at any time within 2.5 hrs after the start of infusion (percentage of patients): (11%)
  Conversion to NSR at any time within 2.5 hrs and remaining in NSR until 2.5 hrs after the start of infusion (patients out of total): 1 out of 9
  Conversion to NSR at any time within 2.5 hrs and remaining in NSR until 2.5 hrs after the start of infusion (percentage of patients): (11%)
  Conversion to NSR at any time within 2.5 hrs and remaining in NSR until 24 hrs after the start of infusion (patients out of total): 1 out of 7
  Conversion to NSR at any time within 2.5 hrs and remaining in NSR until 24 hrs after the start of infusion (percentage of patients): (14%)
  Conversion to NSR at any time within 24 hrs after the start of infusion (patients out of total): 2 out of 7
  Conversion to NSR at any time within 24 hrs after the start of infusion (percentage of patients): (29%)
  Conversion to NSR at any time within 24 hrs and remaining in NSR until 24 hrs after the start of infusion (patients out of total): 2 out of 7
  Conversion to NSR at any time within 24 hrs and remaining in NSR until 24 hrs after the start of infusion (percentage of patients): (29%)
[3]; 0.4 mg/kg iv two-step 30 minute infusion, listed as tedisamil
  Conversion to NSR at any time within 2.5 hrs after the start of infusion (percentage of patients): 11%
[3]; [6]
  Conversion to NSR at any time within 2.5 hrs after the start of infusion (patients converted out of total): 3 out of 11
  Conversion to NSR at any time within 2.5 hrs after the start of infusion (percentage of patients): (27%)
  Conversion to NSR at any time within 2.5 hrs and remaining in NSR until 2.5 hrs after the start of infusion (patients out of total): 3 out of 11
  Conversion to NSR at any time within 2.5 hrs and remaining in NSR until 2.5 hrs after the start of infusion (percentage of patients): (27%)
  Conversion to NSR at any time within 2.5 hrs and remaining in NSR until 24 hrs after the start of infusion (patients out of total): 3 out of 7
  Conversion to NSR at any time within 2.5 hrs and remaining in NSR until 24 hrs after the start of infusion (percentage of patients): (43%)
  Conversion to NSR at any time within 24 hrs after the start of infusion (patients out of total): 3 out of 7
  Conversion to NSR at any time within 24 hrs after the start of infusion (percentage of patients): (43%)
  Conversion to NSR at any time within 24 hrs and remaining in NSR until 24 hrs after the start of infusion (patients out of total): 3 out of 7
  Conversion to NSR at any time within 24 hrs and remaining in NSR until 24 hrs after the start of infusion (percentage of patients): (43%)
[3]; 0.6 mg/kg iv two-step 30 minute infusion, listed as tedisamil
  Conversion to NSR at any time within 2.5 hrs after the start of infusion (percentage of patients): 27%
[3]; Female, 0.4 mg/kg
  Conversion to NSR at any time within 2.5 hrs after start of infusion (converted/total): 0/2
[3]; Female, 0.6 mg/kg
  Conversion to NSR at any time within 2.5 hrs after start of infusion (%): 33.3%
  Conversion to NSR at any time within 2.5 hrs after start of infusion (converted/total): 2/6
[3]; Male, 0.4 mg/kg
  Conversion to NSR at any time within 2.5 hrs after start of infusion (%): 14.3%
  Conversion to NSR at any time within 2.5 hrs after start of infusion (converted/total): 1/7
[3]; Male, 0.6 mg/kg
  Conversion to NSR at any time within 2.5 hrs after start of infusion (%): 20.0%
  Conversion to NSR at any time within 2.5 hrs after start of infusion (converted/total): 1/5

— patent US7087620B2, “Liquid pharmaceutical formulations containing 3,7-diazabicyclo[3,3,1]nonane compounds and methods of treatment relating to anti-arrhythmic events” (Solvay Pharmaceuticals GmbH, priority 2002, dated 2006)
